# Entries after “also recorded” stand apart in the source; their conditions may differ.
# B1: noggin: BMPs antagonist, 250 ng/ml (protein, UniProt Q13253 28-232, looked up)
# Noggin: QHYLHIRPAPSDNLPLVDLIEHPDPIFDPKEKDLNETLLRSLLGGHYDPGFMATSPPEDRPGGGGGAAGGAEDLAELDQLLRQRPSGAMPSEIKGLEFSEGLAQGKKQRLSKKLRRKLQMWLWSQTFCPVLYAWNDLGSRFWPRYVKVGSCFSKRSCSVPEGMVCKPSKSVHLTVLRWRCQRRGGQRCGWIPIQYPIISECKCSC
# B2: activin A: TGFβ superfamily factor, 25-50 ng/ml (protein, UniProt P08476 311-426, looked up)
# Inhibin beta A chain: GLECDGKVNICCKKQFFVSFKDIGWNDWIIAPSGYHANYCEGECPSHIAGTSGSSLSFHSTVINHYRMRGHSPFANLKSCCVPTKLRPMSMLYYDDGQNIIKKDIQNMIVEECGCS
# modifications: Inhibin beta A chain
# notes: TGFβ superfamily factor, 25-50 ng/ml
# Key:
# Assay type in all cases: cell-based, human
# hESC-derived EBs [1] = experiment: Differentiation towards RPE (pigmented) cells within EBs
# Procedure: (§1) Human ES cells were removed from the feeders by treatment with dispase (10 mg/ml; Gibco), and/or type IV collagenase (1 mg/ml; Gibco). The clusters of undifferentiated cells that were obtained were further triturated into smaller clumps within PBS. These clumps were cultured for various periods in suspension within bacteriological dishes precoated with 0.1% low melting temperature agarose in DMEM (Gibco), supplemented with 10-20% FCS (Biological Industries, Beit Haemek), 1 mM L-glutamine, 0.1 mM β-mercaptoethanol, 1% non-essential amino acid stock, 50 units/ml penicillin, 50 μg/ml streptomycin (all from Gibco Invitrogen Corporation products, USA) in the presence or absence of nicotinamide 10 mM (Sigma). In some experiments DMEM and FCS were replaced by 86% KO-DMEM and 14% KOSR or by Neurobasal medium supplemented by N2 (Gibco).
# Differentiation into neural spheres was conducted according to the published protocol (Itsykson, P., et al. Derivation of neural precursors from human embryonic stem cells in the presence of noggin. Mol Cell Neurpsci 30, 24-36 (2005). Spheres were dissociated mechanically by trituration. Pigmented clusters of cells within EBs, differentiating 8-10 weeks were mechanically dissected by glass micropipettes or scalpel blades.
# (§2) EBs were dissociated into smaller clusters mechanically with/without the aid of trypsin (0.025%, 3 mM EDTA in PBS) digestion. The small clusters of cells were plated on poly-D-lysine (30-70 kDa, 10 μg/ml; Sigma, St. Louis, Mo.) and laminin-coated (4 μg/ml; Sigma) glass coverslips and cultured for additional 3-5 weeks in the culture medium used for suspension culture of EBs or neural spheres. Differentiated cells within the outgrowth were fixed with 4% paraformaldehyde for 20 minutes at room temperature. Cell membranes were permeabilized with 0.2% Triton X100 (Sigma) in PBS for 5 minutes for immunostaining with ant-intracellular markers antibodies. The cells were incubated with the following primary antibodies: anti β-tubulin III (mouse monoclonal IgG2b, 1:2000, Sigma), anti human alphafetoprotein (mouse monoclonal IgG2a, 1:200, Sigma), anti human muscle actin (mouse monoclonal IgG1, 1:10, Dako) and anti human desmin (mouse monoclonal IgG1,κ, 1:10, Dako), anti-Pax6 (Developmental Studies Hybridoma Bank; mouse monoclonal IgG1, 1:100), anti-MITF (Lab Vision Corporation, Fremont, Calif.; mouse IgG1, 1:50), anti-RPE65 (Novus Biologicals, Littleton, Colo.; mouse IgG1, 1:300), anti-Bestrophin (Novus Biologicals, Littleton, Colo.; mouse IgG1, 1:150), anti-ZO-1 (Zymed Laboratories Inc., South San Francisco, Calif.; rabbit polyclonal, 1:10) and anti-CRALBP (kindly provided by John C. Saari, University of Washington, Seattle; rabbit polyclonal, 1:100).
# hESC-derived EBs [2] = experiment: Immunocytochemical and RT-PCR analysis of EBs
# Procedure: EBs that were developed 4 weeks in suspension culture in the presence and absence of nicotinamide (NA), were fixed in 4% paraformaldehyde at room temperature overnight. The EBs were then concentrated at the bottom of a centrifuge tube and embedded in agar. The agar blocks were dehydrated, and embedded in paraffin. 5-micron sections were immuno-stained with anti-human cytokeratin-8 and anti-α-fetoprotein (both at 1:50, monoclonal mouse IgG, DAKO). Primary antibody localization was performed using Picture™ plus kit (Zymed). For RT PCR analysis, total RNA was collected from EBs that were developed 4 weeks in suspension culture in the presence and absence of nicotinamide (NA). Total RNA was isolated using TRI REAGENT (Sigma) and converted into complementary cDNA with M-MLV reverse transcriptase (Promega). PCR was carried out using standard protocols with Taq DNA Polymerase (Promega). Amplification conditions were as follows: denaturation at 94° C. for 60 seconds, annealing at 55-60° C. for 60 seconds, and extension at 72° C. for 60 seconds. The number of cycles was 35 Primer sequences and lengths of amplified products were: […]
# hESC-derived EBs [3] = experiment: EB formation in presence or absence of nicotinamide: morphology, size, cell number; details: for number of cells versus controls: comparable number of starting cells
# Procedure: as §1
# hESC-derived EBs [4] = experiment: Neural precursor marker expression in EBs (FACS, indirect immunofluorescence)
# Procedure: as §2
# hESC-derived EBs [5] = experiment: Gene expression profile of EBs by affymetrix gene arrays
# cord-derived fibroblasts = experiment: Propagation of cord-derived feeders with FGF2 supplementation; details: medium supplemented with FGF2; FIG. 16
# Procedure: Term umbilical cord tissue was minced as above, and the small pieces of tissue were plated in the fibroblast culture medium, as described above. To promote the adherence of the tissue pieces to the culture dish, flasks were incubated upright overnight. Cells emanating from the tissue pieces were propagated as above.
# hESC [6] = experiment: hESC culture on dishes pre-coated with different matrices; FACS marker expression
# Procedure: Human embryonic fibroblasts derived from umbilical cord as described herein or foreskin fibroblasts were used as feeders. The feeders were plated in tissue culture dishes precoated with 1 μg/cm^2 human Fibronectin (BD Biosciences, Bedford, Mass.) or 100 μg/ml recombinant Gelatin (FibroGen, SF). Mitotic inactivation was carried out by incubating the feeders 2.5 hours with Mitomycin-C (Kyowa, Tokyo). KO DMEM (Gibco), X-Vivo 10 (Biowhittaker, Maryland), or Cellgro Stem Cell Growth Medium (CellGenix Freiburg, Germany) were used as the basic media. They were supplemented with TCH (1-2%; Protide Pharmaceuticals, St. Paul, Minn.) or Nutridoma-CS (2%; Roche, Germany) as serum substitutes. The media were supplemented with 2 mM glutamine (Hyclone, Utah) and non-essential amino acids (NEAA, 1%; Hyclone Utah). HESC were split weekly with Ca/Mg^++-free PBS supplemented with 0.05% EDTA.
# FACS analysis of marker expression was performed on hESC after disaggregation using Ca/Mg^++-free PBS supplemented with 0.05% EDTA. The cells were then washed with FACS media consisting of PBS supplemented with 1% BSA and 0.05% sodium azide. The single cell suspension was stained with anti-SSEA4 (1:100, mouse monoclonal IgG3, Developmental Studies Hybridoma Bank (DHSB), Iowa City, Iowa), and anti-Tra-1-60 (1:20, monoclonal mouse IgM, gift from Prof. P. Andrews), anti-Tra-1-81 (1:100, monoclonal mouse IgM, Chemicon International), anti-human Oct 4 (mouse monoclonal IgG2b, 1:50, Santa Cruz), and anti-SSEA1 (1:100, Chemicon). Control hESC were stained with the respective isotype control antibodies. Primary antibodies were detected with a FITC-labeled goat anti-mouse Ig (1:100, Dako).
# hESC [7] = experiment: Suspension culture of hESC in NBN2 medium; details: NBN2, in the presence of FGF2, 3 weeks
# Procedure: In the course of the routine passaging procedure, HESC colonies were dissociated with 0.05% of EDTA for 7-10 min at 37°, or mechanically with the aid of collagenase IV (1 mg/ml, 120 min at 37°). Cell dissociation was promoted by gentle blowing of the medium with a 1 ml pipette tip towards the hESC colonies. The cells/cell-clusters were re-suspended in NBN2 medium (Neurobasal, N2 supplement 1:100, glutamine 2 mM, 50 units/ml penicillin, 50 μg/ml streptomycin) supplemented with bFGF 20 ng/ml, noggin 250 ng/ml, activin 25-50 ng/ml, fibronectin and laminin 5 ng/ml each, gelatin 0.001%. The suspension may be strained though 30-50 micron mesh to remove big clumps and transferred into tissue culture dishes (Costar®, Corning Inc., Corning, N.Y., USA) at a density of ˜0.7-1.2×10^6 cells/ml. Dead cells and their fragments were gradually removed during media refreshment and small transparent cell aggregates emerged from the 3rd-5th days of suspension culture. The cells proliferated as free-floating tiny clusters of 20-50 cells. Aggregation and overgrowth of clusters was prevented by their daily trituration with a 1000 μl pipettor tip. Alternatively, every 7 days clusters were dissociated with Ca/Mg-free PBS supplemented with 3 mM EDTA and 0.06% trypsin and the single cells were resuspended in fresh medium. […]
# [8] = in the presence of NA, indirect immunofluorescence
# [9] = 4 weeks suspension culture, presence vs absence of NA
# [10] = Cellgro medium with 2% TCH, matrix coating
molecule,measurement,setting,value
"NC(=O)c1cccnc1 [NA, nicotinamide]",percentage of EBs that included clusters of pigmented cells,hESC-derived EBs [1]; 5 weeks of differentiation in the presence of NA,34%
same,percentage of EBs that included clusters of pigmented cells,hESC-derived EBs [1]; 6 weeks of differentiation in the presence of NA,59%
same,percentage of EBs that included clusters of pigmented cells,hESC-derived EBs [1]; 12 weeks of differentiation in the presence of NA,70%
same,expression of the RPE markers RPE65 and MITF A,"hESC-derived EBs [1]; Real Time PCR, 6 weeks, versus control EBs",significantly increased; also recorded: induction
same,percentage of cells within the EBs that were pigmented,hESC-derived EBs [1]; after 6 weeks of differentiation,9%
same,expression of cytokeratin-8 within EBs,"hESC-derived EBs [2]; 4 weeks in the presence of NA, immunocytochemistry",not demonstrated; also recorded: only a few cells
same,expression of α-fetoprotein within EBs,"hESC-derived EBs [2]; differentiation in the presence of NA, immunocytochemistry and RT-PCR",not detected; also recorded: suppressed; also recorded: only a few cells
same,development of cystic structures in EBs,hESC-derived EBs [3]; EBs cultured in the presence of RA and NA,infrequent; also recorded: blocked the effects of RA
same,morphology of differentiated cells within EBs,hESC-derived EBs [3]; NA 10 mM,acquired the morphology of neural precursor cells
same,prolonged culture of EBs,hESC-derived EBs [3]; NA treatment,12 weeks
same,number of cells versus controls,hESC-derived EBs [3]; after 2 weeks,5.4 times
same,number of cells versus controls,hESC-derived EBs [3]; after 4 weeks,33 times
same,formation of cystic structures within EBs,"hESC-derived EBs [3]; chemically-defined medium (NBN2), 2-5 weeks",not observed
same,effect of RA on number of differentiated cells,hESC-derived EBs [3]; medium with RA supplemented with NA,blocked
same,size of EBs (maximal diameter) versus EBs without NA,"hESC-derived EBs [3]; serum-free medium, two weeks of differentiation",1.7 times
same,formation of cystic structures within EBs,"hESC-derived EBs [3]; serum-supplemented medium, NA 10 mM",not formed; also recorded: not observed
same,percentage of cells expressing PSA-NCAM,"hESC-derived EBs [4]; 6 weeks in the presence of NA, FACS",85.5%
same,percentage of cells expressing nestin,hESC-derived EBs [4]; [8],58.3%
same,percentage of cells expressing β-tubulin III,hESC-derived EBs [4]; [8],67.8%
same,number of genes down-regulated,hESC-derived EBs [5]; [9],630 genes
same,number of genes up- or down-regulated by at least two-fold,hESC-derived EBs [5]; [9],1072 genes
same,number of genes up-regulated,hESC-derived EBs [5]; [9],442 genes
same,expression of chordin-like-1 gene,"hESC-derived EBs [5]; gene arrays, confirmed by RT PCR",up-regulated
same,expression of LEFT A & B and PITX1,"hESC-derived EBs [5]; gene arrays, 4 weeks",down regulated
same,"expression of Wnt signaling pathway genes (Wnt4, Wnt 2B, FZD1, FZD2, FZD3, FZD10)","hESC-derived EBs [5]; gene arrays, 4 weeks",induced
same,expression of ZIC1,"hESC-derived EBs [5]; gene arrays, 4 weeks",remarkably up-regulated
same,"expression of cytokeratins 7, 18, 19, 23","hESC-derived EBs [5]; gene arrays, 4 weeks",suppressed
same,expression of α-fetoprotein and cytokeratin-8,"hESC-derived EBs [5]; gene arrays, 4 weeks",suppressed
FGF2: growth factor supplementing the medium,proliferation of the fibroblasts,cord-derived fibroblasts,could be augmented
gelatin,percentage of SSEA-4+ cells,hESC [6]; [10],97%
same,percentage of Tra-1-60+ cells,hESC [6]; [10],92%
same,percentage of SSEA-4+ hESC,"hESC [6]; foreskin feeder layer, KO DMEM+KO SR, plates precoated with the matrix",91%
B1,effect on survival/proliferation of hESC in suspension,hESC [7]; FIG. 23B,could promote survival/proliferation
B2,effect on differentiation of hESC in suspension,hESC [7]; FIG. 23A,prevented differentiation

# Reference: US9005965B2, “Stem cells culture systems” (Hadasit Medical Research Services & Development Limited, priority 2004, dated 2015)
